# According to patent publication US4510132A, “Compounds for use in antibacterial therapy” (priority 1982, dated 1985):
# Entries after “also recorded” stand apart in the source; their conditions may differ.
# Columns and labels:
# [1] = test system: Salmonella typhimurium LT2 strain SL 696; experiment: MIC of antibiotics in the presence of polymyxin nonapeptide, microtiter plate, S. typhimurium; type: cell-based; settings: for minimum inhibitory concentration (MIC) of the antibiotic: 18 h; for factor by which PMBN sensitized the strain to the antibiotic: S. typhimurium strain SL 696, from Table 1
# Description: (§1) Methods. Smooth Salmonella typhimurium LT2 strain SL 696 (Wilkinson et al 1972 J. Gen. Microbiol. 70,527) was used as indicator organism. It was grown in Luria broth (Miller 1972. Experience in molecular genetics, Cold Spring Harbor Laboratory, New York) at 37° C. in a rotary shaker (220 rpm) into early logarithmic growth phase (Klett 40 units, Klett-Summerson colorimeter, red filter) washed with 0.9% NaCl and resuspended in 0.9% NaCl (final optical density 120 Klett units corresponding to approx. 10^9 cells/ml).
# (§2) Erythromycin ethylsuccinate stock solution was prepared by dissolving 5.5 mg of erythromycin […] with 2 ml of 96% ethanol whereafter deionized water was added to a final volume of 5.5 ml. Other antibiotics were readily dissolved in deionized water.
# (§3) Experimental procedure: Davis minimal growth medium (Sanderson et al, 1972, Bact. Rev. 36,608) containing glucose (1 g/l), casaminoacids (1 g/l. Difco), tryptophan (20 mg/l), and increasing amounts of a particular antibiotic was inoculated with 10^4 cells per ml of a fresh suspension of indicator bacteria. Aliquots (200 μl) of this inoculated medium were pipetted in wells of a microtiter plate (Titertek, CAT NO. 76-213-05, Flow Laboratories, United States). Each well already contained increasing amounts of the particular polycationic agent in 30 μl of 0.9% NaCl. The plates were sealed with adhesive tape and incubated at 37° C. for 18 h.
# (§4) Methods. The known compound, polymyxin E nonapeptide (colistin E nonapeptide, Japanese patent specification Nos. 4178/1971 and 51355/1972) having the following formula: [drawing 5] where leu is leucine, thr is threonine, and dab is diaminobutyric acid, was prepared from polymyxin E (colistin) using an enzymatic ficin treatment as described by Chihara et al (Agr. Biol. Chem. 37,2455, 1973).
# [2] = test system: E. coli strains IHE 3080, EH 817, IHE 11038, IHE 11055, IHE 11167; experiment: Sensitization of E. coli strains to killing by 10% normal human serum (complement); type: cell-based
# Description: Methods. The strains used were smooth Salmonella typhirmurium LT2 strain SL 696 (Wilkinson et al 1972 J. Gen. Microbiol. 70, 527) and the following E. coli strains isolated at the National Public Health Institute, Helsinki: IHE 3080 (018,K1), EH 817 (018,K1^- derivative of IHE 3080), IHE 11038 (018,K5), IHE 11055 (02,K1), and IHE 11167 (04,K12). Bacteria were grown in Luria broth (Miller 1972. Experiments in molecular genetics, Cold Spring Harbor Laboratory, New York) at 37° C. in a rotary shaker (220 rpm) into early logaritmic growth phase (Klett 40 units, Klett-Summerson colorimeter, red filter) washed with PBS (phosphate buffered saline, 8.0 g of NaCl, 0.2 g of KCl, 1.44 g of Na2 HPO4 x2H2 O and 0.2 g of KH2 PO4 per liter) and resuspended in PBS, (final optical density 120 Klett units corresponding to approx. 10^9 cells/ml).
# Pooled normal human serum from 39 healthy blood donors was used as complement source. It was stored at -70° C. before use.
# Experimental procedure: 10% NHS in PBS was inoculated with approx. 300 cells of freshly grown bacteria and pipetted in 200 μl aliquots in wells of mictrotiter plate (Titertek®, CAT NO. 76-213-05). The wells already contained increasing amounts of PMBN in 30 μl of 0.9% NaCl. […] The agar plates were incubated overnight at 37° C. and the developed colonies were counted.
# [3] = test system: E. coli strain IH 3080 (018:K1); experiment: MIC of antibiotics in the presence of polymyxin nonapeptide, microtiter plate, E. coli; type: cell-based; settings: for factor by which PMBN sensitized the strain to the antibiotic: E. coli 018:K1 strain IH 3080, from Table 2; for MIC of the antibiotic: E. coli IH 3080
# Description: as §1, §2, §3
# Methods. The methods were those presented in Example 3 except that E. coli was used as the test organism. The E. coli strain was IH 3080 (018:K1) isolated from the cerebrospinal fluid of a neonate with meningitis.
# as §4
# [4] = test system: E. coli strain IH 3080 (018:K1); experiment: Experimental E. coli infection in mice, PMBN combined with erythromycin; type: in vivo, female NMRI mice; settings: for Number of dead mice: 10 mice per group
# From the text: Methods. […] The mice were followed 7 days for deaths.
# [5] = PMBN 0 μg/ml, S. typhimurium SL 696
# [6] = PMBN 0.3 μg/ml, S. typhimurium SL 696
# [7] = PMBN 1 μg/ml, S. typhimurium SL 696
# [8] = PMBN 3 μg/ml, S. typhimurium SL 696
# [9] = PMBN 10 μg/ml, S. typhimurium SL 696
# [10] = PMBN 30 μg/ml, S. typhimurium SL 696
Compound,"minimum inhibitory concentration (MIC) of the antibiotic [1, 5]","minimum inhibitory concentration (MIC) of the antibiotic [1, 6]","minimum inhibitory concentration (MIC) of the antibiotic [1, 7]","minimum inhibitory concentration (MIC) of the antibiotic [1, 8]","minimum inhibitory concentration (MIC) of the antibiotic [1, 9]","minimum inhibitory concentration (MIC) of the antibiotic [1, 10]",factor by which PMBN sensitized the strain to the antibiotic [1],factor by which PMBN sensitized the strain to the antibiotic [3],MIC of the antibiotic ([3]; PMBN 0 μg/ml),MIC of the antibiotic ([3]; PMBN 0.3 μg/ml),MIC of the antibiotic ([3]; PMBN 1 μg/ml),MIC of the antibiotic ([3]; PMBN 3 μg/ml),MIC of the antibiotic ([3]; PMBN 10 μg/ml),other results
"CCOc1ccc2ccccc2c1C(=O)N[C@@H]1C(=O)N2[C@@H]1SC(C)(C)[C@@H]2C(=O)O [Nafcillin, nafcillin]",≥ 1000,≥ 1000,100,100,30,30,≥ 30 times,–,–,–,–,–,–,–
polymyxin B nonapeptide [PMBN],–,–,–,–,–,–,–,–,–,–,–,–,–,"concentration of PMBN that sensitized the strains to killing by 10% NHS ([2]; E. coli strains, 10% normal human serum, 2 h): 0.3 µg/mL; bactericidal action of serum in the presence of PMBN after inactivation of complement ([2]; complement destroyed by heat (30 min at 56° C.) or zymosan A): the serum lost its capacity to kill bacteria; also recorded: NHS lost its bactericidal, PMBN-dependent action; concentration of PMBN required to sensitize the bacteria to most antibiotics by a factor of 10-30 ([1]; S. typhimurium SL 696): 1-3 μg/ml; amount of PMBN sufficient to sensitize E. coli to erythromycin and fusidic acid by a factor of 30 ([3]; E. coli): 0.3 µg"
"CCOC(=O)CCC(=O)O[C@H]1[C@H](O[C@@H]2[C@@H](C)[C@H](O[C@H]3C[C@@](C)(OC)[C@@H](O)[C@H](C)O3)[C@@H](C)C(=O)O[C@H](CC)[C@@](C)(O)[C@H](O)[C@@H](C)C(=O)[C@H](C)C[C@@]2(C)O)O[C@H](C)C[C@@H]1N(C)C [Erythromycin, erythromycin ethylsuccinate]",≥ 100,30,10,10,3,3,≥ 30 times,≥ 100 times,30 µg/mL,1 µg/mL,1 µg/mL,1 µg/mL,1 µg/mL,"Number of dead mice ([4]; day 1 after infection, erythromycin 10 mg/kg i.p., PMBN 10 mg/kg s.c.): 7; Number of dead mice ([4]; day 2 after infection): 8; Number of dead mice ([4]; day 3 after infection): 9; Number of dead mice ([4]; day 4 after infection): 9; Number of dead mice ([4]; day 5 after infection): 9; Number of dead mice ([4]; day 6 after infection): 9; Number of dead mice ([4]; day 7 after infection): 9; therapeutic action against the E. coli infection ([4]; mice, erythromycin 10 mg/kg, PMBN 10 mg/kg): without any therapeutic action"
"CCC[C@@H]1C[C@@H](C(=O)N[C@@H]([C@H]2O[C@H](SC)[C@H](O)[C@@H](O)[C@H]2O)[C@H](C)Cl)N(C)C1.Cl [Clindamycin, clindamycin hydrochloride]",–,–,–,–,–,–,–,–,30 µg/mL,3 µg/mL,3 µg/mL,3 µg/mL,3 µg/mL,–
CO[C@H]1/C=C/O[C@@]2(C)Oc3c(C)c(O)c4c(O)c(c(/C=N/N5CCN(C)CC5)c(O)c4c3C2=O)NC(=O)/C(C)=C\C=C\[C@H](C)[C@H](O)[C@@H](C)[C@@H](O)[C@@H](C)[C@H](OC(C)=O)[C@@H]1C [Rifampicin],–,–,–,–,–,–,–,100 times,3 µg/mL,3 µg/mL,0.1 µg/mL,0.03 µg/mL,0.03 µg/mL,–
